Reference: PubChem BioAssay AID1963445 (Molecular Pharmacology Branch, DTP, NCI, 2024)
pIC50: −log10 of the molar value. “And” between values parts separate entries of the source, which are not always exact repeats. Identical values can stand only once.

Tested on: MCF7 complex spheroid growth, % test/control
Experiment: Anticancer human tumor MCF7 cell line growth inhibition [Asc];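 also: spheroids exposed to compounds for 7 days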;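 as to viability, T/C: 100% = DMSO vehicle control wells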
Details: for viability, T/C: stronger effect = lower value
Method in brief: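 Tumor cells were grown as complex spheroids with human endothelial cells (HUVEC) and human mesenchymal stem cells as stroma. Agents were tested alone and in combination, in half-log steps down from the clinical Cmax, or from 10 microM where Cmax was unknown.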

[1] = curve of first compound, second compound 0.00316 µM
[2] = curve of first compound, second compound 0.01 µM
[3] = curve of first compound, second compound 0.0316 µM
[4] = curve of first compound, second compound 0.1 µM
[5] = curve of first compound, second compound 0.316 µM
[6] = curve of first compound, second compound 1 µM
[7] = second compound 0.00316 µM, first compound 0.0316 µM
[8] = second compound 0.00316 µM, first compound 0.1 µM
[9] = second compound 0.01 µM, first compound 0.0316 µM
[10] = second compound 0.01 µM, first compound 0.1 µM
[11] = second compound 0.0316 µM, first compound 0.0316 µM
[12] = second compound 0.0316 µM, first compound 0.1 µM
[13] = second compound 0.1 µM, first compound 0.0316 µM
[14] = second compound 0.1 µM, first compound 0.1 µM
[15] = second compound 0.316 µM, first compound 0.0316 µM
[16] = second compound 0.316 µM, first compound 0.1 µM
[17] = second compound 1 µM, first compound 0.0316 µM
[18] = second compound 1 µM, first compound 0.1 µM

NC1CCC(NC2CC2c2ccccc2)CC1 (stereo not drawn) + CNC(C)C(=O)NC1CN(S(=O)(=O)c2cccc(S(=O)(=O)N3CCC4CCC(C(=O)NC(c5ccccc5)c5ccccc5)N4C(=O)C(NC(=O)C(C)NC)C3)c2)CCC2CCC(C(=O)NC(c3ccccc3)c3ccccc3)N2C1=O gave a pIC50 [1] of over 9.50, a pIC50 [2] of over 9.50 and a pIC50 [3] of over 9.50. For the same molecule, the pIC50 [4] was over 9.50, the pIC50 [5] was over 9.50 and the pIC50 [6] was over 9.50. The viability, T/C (second compound 0.00316 µM, first compound 0.000316 µM) was 23.3%, the viability, T/C (second compound 0.00316 µM, first compound 0.001 µM) was 18.5% and the viability, T/C (second compound 0.00316 µM, first compound 0.00316 µM) was 16.4%. It also gave a viability, T/C (second compound 0.00316 µM, first compound 0.01 µM) of 21.6%, a viability, T/C [7] of 18.2% and a viability, T/C [8] of 22.6%. For the same molecule, the viability, T/C (second compound 0.01 µM, first compound 0.000316 µM) was 11.9%, the viability, T/C (second compound 0.01 µM, first compound 0.001 µM) was 12.3% and the viability, T/C (second compound 0.01 µM, first compound 0.00316 µM) was 12.2%. The viability, T/C (second compound 0.01 µM, first compound 0.01 µM) was 10.7%, the viability, T/C [9] was 10.4% and the viability, T/C [10] was 10.8%. For the same molecule, the viability, T/C (second compound 0.0316 µM, first compound 0.000316 µM) was 11.2%, the viability, T/C (second compound 0.0316 µM, first compound 0.001 µM) was 9.92% and the viability, T/C (second compound 0.0316 µM, first compound 0.00316 µM) was 10.8%. It also gave a viability, T/C (second compound 0.0316 µM, first compound 0.01 µM) of 10.2%, a viability, T/C [11] of 10.9% and a viability, T/C [12] of 11.9%. For the same molecule, the viability, T/C (second compound 0.1 µM, first compound 0.000316 µM) was 13.9%, the viability, T/C (second compound 0.1 µM, first compound 0.001 µM) was 12.6% and the viability, T/C (second compound 0.1 µM, first compound 0.00316 µM) was 12.5%. The viability, T/C (second compound 0.1 µM, first compound 0.01 µM) was 10.5%, the viability, T/C [13] was 13.6% and the viability, T/C [14] was 13.8%. It also gave a viability, T/C (second compound 0.316 µM, first compound 0.000316 µM) of 11.4%, a viability, T/C (second compound 0.316 µM, first compound 0.001 µM) of 16.8% and a viability, T/C (second compound 0.316 µM, first compound 0.00316 µM) of 16.9%. For the same molecule, the viability, T/C (second compound 0.316 µM, first compound 0.01 µM) was 15.8%, the viability, T/C [15] was 12% and the viability, T/C [16] was 14.2%. For the same molecule, the viability, T/C (second compound 1 µM, first compound 0.000316 µM) was 13.1%, the viability, T/C (second compound 1 µM, first compound 0.001 µM) was 12.3% and the viability, T/C (second compound 1 µM, first compound 0.00316 µM) was 13.9%. It also gave a viability, T/C (second compound 1 µM, first compound 0.01 µM) of 15.8%, a viability, T/C [17] of 15% and a viability, T/C [18] of 10.2%.

Cc1nc(N2CCC3(CC2)COC(C)C3N)c(CO)nc1Sc1ccnc(N)c1Cl (stereo not drawn) was tested, and the viability, T/C (compound 0.00949 µM) was 89.4% and 87.6% and 92.8%, the viability, T/C (compound 0.03 µM) was 89.1% and 113% and 107% and the viability, T/C (compound 0.0949 µM) was 86.5% and 90.9% and 95.4%. The viability, T/C (compound 0.3 µM) was 82.5% and 93.3% and 94.7%, the viability, T/C (compound 0.949 µM) was 16.5% and 27% and 73% and the viability, T/C (compound 3 µM) was 11.1% and 14.7% and 16.4%. The pIC50 (curve of compound) was 6.28 and 6.20 and 5.82.

In the case of C=CC(=O)N1CCN(c2nc(=O)n(-c3c(C)ccnc3C(C)C)c3nc(-c4c(O)cccc4F)c(F)cc23)C(C)C1 (stereo not drawn) + CNC(C)C(=O)NC1CN(S(=O)(=O)c2cccc(S(=O)(=O)N3CCC4CCC(C(=O)NC(c5ccccc5)c5ccccc5)N4C(=O)C(NC(=O)C(C)NC)C3)c2)CCC2CCC(C(=O)NC(c3ccccc3)c3ccccc3)N2C1=O, the pIC50 [1] was over 7.50, the pIC50 [2] was over 7.50 and the pIC50 [3] was over 7.50. It also gave a pIC50 [4] of over 7.50, a pIC50 [5] of over 7.50 and a pIC50 [6] of over 7.50. For the same molecule, the viability, T/C [7] was 68.5%, the viability, T/C [8] was 29% and the viability, T/C (second compound 0.00316 µM, first compound 0.316 µM) was 30.4%. The viability, T/C (second compound 0.00316 µM, first compound 1 µM) was 54.8%, the viability, T/C (second compound 0.00316 µM, first compound 3.16 µM) was 60.5% and the viability, T/C (second compound 0.00316 µM, first compound 10 µM) was 57.9%. For the same molecule, the viability, T/C [9] was 20.1%, the viability, T/C [10] was 15% and the viability, T/C (second compound 0.01 µM, first compound 0.316 µM) was 13.6%. For the same molecule, the viability, T/C (second compound 0.01 µM, first compound 1 µM) was 16.9%, the viability, T/C (second compound 0.01 µM, first compound 3.16 µM) was 29.6% and the viability, T/C (second compound 0.01 µM, first compound 10 µM) was 46%. The viability, T/C [11] was 12.7%, the viability, T/C [12] was 14.4% and the viability, T/C (second compound 0.0316 µM, first compound 0.316 µM) was 12.5%. The viability, T/C (second compound 0.0316 µM, first compound 1 µM) was 16.3%, the viability, T/C (second compound 0.0316 µM, first compound 3.16 µM) was 30.7% and the viability, T/C (second compound 0.0316 µM, first compound 10 µM) was 36.6%. For the same molecule, the viability, T/C [13] was 14.1%, the viability, T/C [14] was 12% and the viability, T/C (second compound 0.1 µM, first compound 0.316 µM) was 16.8%. The viability, T/C (second compound 0.1 µM, first compound 1 µM) was 16.2%, the viability, T/C (second compound 0.1 µM, first compound 3.16 µM) was 20.2% and the viability, T/C (second compound 0.1 µM, first compound 10 µM) was 33%. For the same molecule, the viability, T/C [15] was 14.5%, the viability, T/C [16] was 13.5% and the viability, T/C (second compound 0.316 µM, first compound 0.316 µM) was 15.2%. For the same molecule, the viability, T/C (second compound 0.316 µM, first compound 1 µM) was 12.1%, the viability, T/C (second compound 0.316 µM, first compound 3.16 µM) was 18.6% and the viability, T/C (second compound 0.316 µM, first compound 10 µM) was 33.7%. For the same molecule, the viability, T/C [17] was 13%, the viability, T/C [18] was 12.8% and the viability, T/C (second compound 1 µM, first compound 0.316 µM) was 11.7%. The viability, T/C (second compound 1 µM, first compound 1 µM) was 14.8%, the viability, T/C (second compound 1 µM, first compound 3.16 µM) was 16.5% and the viability, T/C (second compound 1 µM, first compound 10 µM) was 28.9%.

With NC(=O)C(=Cn1cnc(-c2cc(C(F)(F)F)cc(C(F)(F)F)c2)n1)c1cncnc1 the viability, T/C (compound 0.000949 µM) was 113% and 86% and 71.3%, the viability, T/C (compound 0.003 µM) was 95.1% and 90% and 67.6% and the viability, T/C (compound 0.00949 µM) was 81.6% and 81.3% and 64.6%. The viability, T/C (compound 0.03 µM) was 83.8% and 96.8% and 60.7%, the viability, T/C (compound 0.0949 µM) was 41.4% and 32.1% and 51.5% and the viability, T/C (compound 0.3 µM) was 16% and 17.7% and 24.4%. The pIC50 (curve of compound) was 7.08 and 7.18 and 7.02.
